How the values were obtained:
[1] = test system: PrfA; test: PrfA activation in L. monocytogenes strains expressing TagRFP from the actA promoter, grown in media with or without reducing agents; format: cell-based, Listeria monocytogenes; conditions: for activation of PrfA in vitro: L. monocytogenes grown in chemically defined media, excess of exogenously added reducing agent; for Optimal concentration for prfA activation: reducing agent added to chemically defined media (Table 1); for induction of ActA (FIG. 1): chemically defined media, fluorescent reporter driven by actA promoter
Method: Experiments were conducted to identify any additional factors required for PrfA activation.
Three different strains were employed: WT 10403S (Lauer et al., J. Bacteriol. (2002) 184:4177-4186; ΔprfA which was an in frame deletion in prfA made by allelic exchange; and PrfA* which has a G145S mutation. The strains were engineered to express TagRFP from the actA promoter (e.g., as reported in Waite et al., PLoS Pathog. (2011)7:e1001326. A chemically defined media detailed in Table 1 was prepared.
Next, a number of reducing agents listed in Table 2 were added to the media.
The three strains were grown in the chemically defined media with or without the addition of the noted reducing agents.

[2] = test system: Listeria monocytogenes; test: Virulence of strains grown with or without reducing agent: bacterial burdens in organs of intravenously infected mice; format: in vivo, CD-1 mice
Method: FIG. 2. In this experiment bacteria were grown in rich media (BHI) or Listeria synthetic media (LSM) with or without reducing agent (TCEP) and injected into mice IV. The data are CFUs at […] in liver and spleens. WT bacteria and a PrfA* strain that has constitutively active PrfA were used.
Prior to infection, bacterial strains were grown to stationary phase overnight in Listeria Synthetic Media (LSM) at 37° C., then diluted into either BHI or LSM, with or without reducing agent (2 mM TCEP) and grown at 37° C. with shaking until the OD600 was approximately 0.5. Cultures were re-suspended in 1× phosphate-buffered saline (PBS) and used to intravenously infect female CD-1 mice between 6 and 8 weeks of age with a final inoculum of 10^5 bacteria. At 48 hrs post-infection, mice were sacrificed and organs collected. Bacterial burdens were enumerated by plating organ homogenates on LB plates and incubating overnight.
WT bacteria and a PrfA* strain that has constitutively active PrfA were used.

| SMILES | activation of PrfA in vitro [1] | Optimal concentration for prfA activation [1] | induction of ActA (FIG. 1) [1] | PrfA activation ([1]; exogenous glutathione, standard complex broth culture) | bacteria in the organs (CFU, liver and spleen), fold more ([2]; bacteria grown in LSM plus 2 mM TCEP, IV, 10^5 bacteria, 48 hrs post-infection) | activation of PrfA-dependent expression, measured by virulence ([2]; defined medium and TCEP, compared with PrfA* strain) |
| --- | --- | --- | --- | --- | --- | --- |
| O[C@H](CS)[C@H](O)CS (racemic) [dithiothreitol (DTT), dithiothreitol] | recapitulated | 2 mM | – | – | – | – |
| OCCS [2-mercaptoethanol (BME), 2-mercaptoethanol] | recapitulated | 2 mM | – | – | – | – |
| N[C@@H](CCC(=O)N[C@@H](CS)C(=O)NCC(=O)O)C(=O)O [Glutathione (reduced), Glutathione] | sufficient to stimulate activation of PrfA | 10 mM | induction of ActA | insufficient to stimulate PrfA activation | – | – |
| N[C@@H](CS)C(=O)O [L-Cysteine] | – | 10 mM | induction of ActA | – | – | – |
| O=C(O)CCP(CCC(=O)O)CCC(=O)O [tris(2-carboxyethyl)phosphine (TCEP), tris(2-carboxyethyl)phosphine] | recapitulated | 2 mM | induction of ActA | – | around 50 fold | equivalent to that of a PrfA-constituitive mutant |

From patent publication US10774390B2, “Methods and compositions for modulating PrfA mediated virulence gene activation in Listeria spp” (The Regents of the University of California, priority 2015, dated 2020)
